{"source": "patent US7244712B2", "about": "“Aminoglycoside antibiotics and methods of using same” (priority 2004, dated 2007)", "key": {"[1]": {"system": "E. coli S30 extract, containing 70S ribosomes", "test": "In vitro protein translation (CAT mRNA, 35S methionine incorporation)", "format": "biochemical", "details": "quantitation of gel bands, read-out: IC50, concentration producing 50% inhibition of translation", "experimental": "Protein translation was performed from chloramphenicol acetyl transferase (CAT) mRNA. […] A commercial E. coli ribosomal suspension was supplemented with an E. coli extract containing the required elements for translation. These include translation factors, tRNAs, and aminoacyl tRNA synthases. Plasmid, T7 RNA polymerase and amino acids were added to the reaction mixture, and both transcription and translation steps were performed in the same vial. The effects of the aminoglycosides on the translation process were evaluated by measuring the incorporation of ^35S methionine in the translated chloramphenicol acetyl transferase protein.\nIn vitro translation was performed by using PROTEINscript™-PRO (Ambion) kit. […] Reaction mixtures contained appropriate concentrations of antibiotic (neomycin B, D- and L-neamine). The protein was translated from CAT mRNA, transcribed from control DNA template containing CAT gene under control of the T7 promotor. The product, ˜25 kDa chloramphenicol acetyl transferase, was labeled during translation with 1 μCi ^35S methionine (New England Nuclear) per reaction (no cold methionine was added).\nFollowing the translation, the samples were analyzed by electrophoresis on 4-20% SDS mini-gels (Invitrogen) for 1.5 h at 120V. Gels were fixed with 40% methanol/10% acetic acid and exposed to Molecular Dynamics phosphoimager plates, which were read on a Personal FX phosphoimager (Bio-Rad) and quantitated using QuantityOne™ software."}, "[2]": {"system": "E. coli (ATCC 25922)", "test": "MIC, wild type E. coli", "format": "cell-based", "details": "growth inhibition greater than 90%", "protocol": "(§1) Minimal inhibitory concentrations (MIC) were measured according to the published method (Greenberg, W. A., Priestley, E. S., Sears, P. S., Alper, P. B., Rosenbohm, C., Hendrix, M., Hung, S.-C., & Wong, C.-H. (1999) J. Am. Chem. Soc. 121, 6527-6541). E. coli (ATCC 25922) (both wild type and pMM-transformed) and P. aeruginosa (ATCC 27853) were grown in medium 2 to an optical density OD 600 of 0.6-0.8. The inoculi were diluted to OD 600 ˜0.1 in medium 2 and 1 mL of the culture was placed in 13 mL test tubes. The desired concentrations of antibiotic were added from stock solutions. […] The absorbance at 600 nm of each sample was read and MIC was taken as the lowest antibiotic concentration inhibiting bacterial growth by greater than 90%."}, "[3]": {"system": "E. coli (ATCC 25922) transformed with pMM plasmid bearing APH(3')IIa", "test": "MIC, kanamycin/neomycin resistant E. coli", "format": "cell-based", "details": "growth inhibition greater than 90%", "protocol": "(§2) E. coli (ATCC 25922) and P. aeruginosa (ATCC 27853) (BD Bioscience) were inoculated in 3 mL of the medium 2 (U.S. Pharmacopia), containing 6 g peptone, 3 g yeast extract and 1.5 g beef extract per 1 L, pH 6.6, and were grown in a shaker for 6 h at 37° C. until an OD 560=0.6-0.8 was reached.\nas §1"}, "[4]": {"system": "E. coli (ATCC 25922)", "test": "Bactericidal activity (bactericide index)", "format": "cell-based", "details": "3 h incubation, FIG. 8", "protocol": "The bactericidal activity of each antibiotic was investigated at concentrations of 0.5-4×MIC in medium E. coli (ATCC 25922) inoculum was added to 0.5 mL medium 2 to OD 600 ˜0.1 together with different antibiotic concentrations. The samples were incubated at 37° C. for 3 hrs, and the bacteria were collected by centrifugation. The bacterial pellets were washed with 0.5 mL of medium 2 and were plated on 1.5% medium 2 agar in 100 mm Petri dishes. The plates were incubated for 1-2 days at 37° C. and mean log 10 change in viable count was calculated and plotted vs drug concentration."}, "[5]": {"system": "E. coli (ATCC 25922) transformed with the plasmid pMM, bearing the APH(3')IIa gene", "test": "Antibiotic activity disk assay, kanamycin/neomycin resistant E. coli", "format": "cell-based", "details": "FIG. 7B", "protocol": "as §2\nFor the antibiotic disk assay, […] of each bacterial inoculum was mixed with 10 mL of melted agar (1.5% medium 2 agar, BD Bioscience) at 50-55° C. and poured onto 100 mm Petri dishes. Sterile Whatmann 3 MM 5 mm paper disks were soaked with antibiotic solutions and allowed to dry. The disks were positioned evenly on the surface of bacterial-inoculated solid agar and the plates were incubated at 37° C. for 1-2 days. MIC and bactericide index measurements."}, "[6]": {"system": "E. faecalis", "test": "Antibacterial activity against E. faecalis", "format": "cell-based"}}, "note": "Entries after “also recorded” stand apart in the source; their conditions may differ.", "data": [{"compound": "NCC1OC(OC2C(N)CC(N)C(O)C2O)C(N)C(O)C1O", "note": "[L-Neamine]", "values": [{"measurement": "IC50", "setting": "[1]", "value": 195, "unit": "µM"}, {"measurement": "Minimal inhibitory concentration (MIC), E. coli", "setting": "[2]", "value": 1300, "unit": "µM"}, {"measurement": "Minimal inhibitory concentration (MIC), E. coli kan/neo resistant", "setting": "[3]", "value": 2100, "unit": "µM"}, {"measurement": "Concentration at which bactericidal effect begins", "setting": "[4]", "value": 600, "unit": "µM"}, {"measurement": "Antibiotic activity in disk assay, kanamycin/neomycin resistant E. coli", "setting": "[5]", "value": "maintained antibiotic activity; also recorded: maintaines substantially the same level of activity"}, {"measurement": "Antibacterial activity against E. faecalis", "setting": "[6]", "value": "little to no antibacterial activity"}]}]}
